# Legend:
# [1] = tested on: men with BPH (average age above 60 years); assay: Testosterone/estradiol (T/E2) ratio before and after atamestane, 4 clinical studies, 7 treatment groups; format: in vivo, human
# Procedure: Gradual lowering of the estrogen concentration induces a counterregulatory stimulation of androgen synthesis. To a certain extent, there is an endogenic testosterone substitution, by which the androgen/estrogen balance is again brought back to the “youthful” range. This substantiates the results of the longer-term treatment of older men (average age above 60 years) with the selective aromatase inhibitor atamestane.
# (§1) In several clinical studies, atamestane was administered at varying dosages and over periods of up to 48 weeks to men in this age group to treat an existing BPH. […] Table 5 provides the testosterone/estrogen ratio before and after the administration of atamestane for patient populations from 4 studies and 7 treatment groups.
# Assuming that the testosterone dominance that was reduced by 30-50% in the age group of patients over 60 years compared to the younger years (relative androgen deficiency) caused the symptoms of “male menopause,” the goal is thus to restore the original “balance of power” between androgens and estrogens by administering a preferably selective aromatase inhibitor by stimulating endogenic testosterone substitution without the necessity of supplying androgens exogenically. Based on the understanding that the ratio prevailing in age is the result of a 30-50% reduction compared to the youthful values, i.e., is always 50-70% of the previous value, the corresponding “youthful” previous value can be calculated for each individual patient. A patient with a testosterone/estradiol ratio of 230:1 must accordingly be adjusted to a new balance in the range between […] to 460:1, so that a preceding 30 or 50% reduction is compensated for.
# patients with BPH [2] = assay: 48-week atamestane treatment (400 mg vs placebo), testosterone serum concentration; format: in vivo, human; settings: daily dose 400 mg
# Source text: (§2) Tables 3 and 4 show the results after a 48-week treatment.
# patients with BPH [3] = assay: 48-week atamestane treatment (100 mg, 300 mg vs placebo), testosterone serum concentration; format: in vivo, human; settings: for Testosterone Serum Concentration Δ % (X ± SD): 48 weeks
# Source text: as §2
# patients with BPH [4] = assay: 24-week four-way study of atamestane versus placebo, testosterone serum concentration; format: in vivo, human; settings: for Testosterone Serum Concentration Δ % (median ± SD): 24 weeks
# patients with BPH [5] = assay: Longer-term clinical studies with atamestane in BPH patients, hormone levels; format: in vivo, human
# Procedure: as §1
# The administration of atamestane consistently results in a resetting of the testosterone/estradiol balance in favor of the androgenic component. This action was detectable over the entire observation period up to a maximum of 48 weeks of treatment.
# [6] = tested on: patients with prostate cancer; settings: pharmacological doses; cited from earlier work
compound,measurement,setting,value
"CC1=CC(=O)C=C2CC[C@@H]3[C@H](CC[C@]4(C)C(=O)CC[C@@H]34)[C@@]12C [atamestane, 1-Methyl-androsta-1,4-diene-3,17-dione]",T/E2 Ratio % Δ,"[1]; 100 mg, 24 weeks",+48%
same,T/E2 Ratio % Δ,"[1]; 100 mg, 48 weeks",+41%
same,T/E2 Ratio % Δ,"[1]; 200 mg t.i.d., 8 weeks",+46%
same,T/E2 Ratio % Δ,"[1]; 300 mg, 24 weeks",+58%
same,T/E2 Ratio % Δ,"[1]; 300 mg, 48 weeks",+46%
same,T/E2 Ratio % Δ,"[1]; 400 mg, 48 weeks",+54%
same,T/E2 Ratio % Δ,"[1]; 600 mg, 24 weeks",+61%
same,"achieved T/E2 versus calculated ""youthful"" target range",[1]; daily dose of 100 mg,target range is generally readily met
same,"achieved T/E2 versus calculated ""youthful"" target range",[1]; higher dosages (above 100 mg daily),somewhat above the target range
same,alteration of the testosterone/estradiol ratio,"[1]; varying dosages, periods of up to 48 weeks",significant alteration of the testosterone/estradiol ratio in favor of testosterone
same,Testosterone Serum Concentration Δ % (X ± SD),patients with BPH [2]; 48 weeks,42.9 ± 53.5%
same,Testosterone Serum Concentration After 48 Weeks,patients with BPH [2]; previous value 4.2,5.4 ng/mL
same,Testosterone Serum Concentration Δ % (X ± SD),patients with BPH [3]; daily dose 100 mg,19.0 ± 36.8%
same,Testosterone Serum Concentration After 48 Weeks,"patients with BPH [3]; daily dose 100 mg, previous value 5.1",5.9 ng/mL
same,Testosterone Serum Concentration Δ % (X ± SD),patients with BPH [3]; daily dose 300 mg,41.7 ± 46.4%
same,Testosterone Serum Concentration After 48 Weeks,"patients with BPH [3]; daily dose 300 mg, previous value 4.7",6.6 ng/mL
same,Testosterone Serum Concentration Δ % (median ± SD),patients with BPH [4]; daily dose 100 mg,29.57 ± 34.70%
same,Testosterone Serum Concentration After 24 Weeks,"patients with BPH [4]; daily dose 100 mg, previous value 4.41",5.57 ng/mL
same,Testosterone Serum Concentration Δ % (median ± SD),patients with BPH [4]; daily dose 300 mg,40.88 ± 156.12%
same,Testosterone Serum Concentration After 24 Weeks,"patients with BPH [4]; daily dose 300 mg, previous value 4.50",6.15 ng/mL
same,Testosterone Serum Concentration Δ % (median ± SD),patients with BPH [4]; daily dose 600 mg,41.19 ± 37.62%
same,Testosterone Serum Concentration After 24 Weeks,"patients with BPH [4]; daily dose 600 mg, previous value 3.78",5.40 ng/mL
same,peripheral estrogen reduction,patients with BPH [5]; daily doses of 100 mg-600 mg,equally intense
same,testosterone concentration after longer-term treatment,"patients with BPH [5]; treatment lasting 24 to 48 weeks, patients with BPH",significant increase
CC/C(=C(/CC)c1ccc(O)cc1)c1ccc(O)cc1 [diethylstilbestrol],testosterone level in the serum,[6],castration level

# Source: patent US6696432B1, “Combination of dehydroepiandrosterone and aromatase inhibitors and use of this combination to produce a medicament for treating relative and absolute androgen deficiency in men” (Schering Aktiengesellschaft, priority 1996, dated 2004)
